Data set [1] in a line: Test for measuring dissolution rate (rotating disk method). The data set is classed as physicochemical. To be noted: 2nd fluid pH 6.8, 500 mL, 37° C., 50 rpm, 1 cm^2. The procedure: The dissolution rates of the following crystal and amorphous compounds were measured under the conditions described below by the rotating disk method (see, J. H. Woods et al., J. Pharm. Soc., 54, 1068 (1955)): a crystalline form of the free carboxamide obtained in Preparation Example 1, an amorphous form of the methanesulfonate of the carboxamide obtained in Example 1 and an amorphous form of the ethanesulfonate obtained in Example 2. The dissolution rates were calculated based on a range in which linearity was maintained in the relation between concentration and time at the initial stage of dissolution.
(Rotating disk method conditions)
Solvent: “2nd fluid” (pH 6.8, 500 mL) as described in Japanese Pharmacopoeia 14th Edition, General Tests (disintegration test)
Disk rotation speed: 50 rpm
Area of powder contacting with solvent on disk: 1 cm^2
Sampling amount: approx. 1 mL
Column: YMC Pack ProC18 (YMC Co., Ltd.; inner diameter 4.6 mm, column length 150 mm, particle size 5 μm)
Column temperature: 40° C.
Concentration of solution B: 20%
Detection: ultraviolet absorbance photometer (wavelength: 252 nm)
Temperature of auto sampler: 25° C.

The target in another data set is c-Kit kinase (Homo sapiens, UniProt P10721). Conditions: AACR 2004 proceedings; WO2004/080462; cited from earlier work.
Chain of c-Kit kinase (P10721 26-976): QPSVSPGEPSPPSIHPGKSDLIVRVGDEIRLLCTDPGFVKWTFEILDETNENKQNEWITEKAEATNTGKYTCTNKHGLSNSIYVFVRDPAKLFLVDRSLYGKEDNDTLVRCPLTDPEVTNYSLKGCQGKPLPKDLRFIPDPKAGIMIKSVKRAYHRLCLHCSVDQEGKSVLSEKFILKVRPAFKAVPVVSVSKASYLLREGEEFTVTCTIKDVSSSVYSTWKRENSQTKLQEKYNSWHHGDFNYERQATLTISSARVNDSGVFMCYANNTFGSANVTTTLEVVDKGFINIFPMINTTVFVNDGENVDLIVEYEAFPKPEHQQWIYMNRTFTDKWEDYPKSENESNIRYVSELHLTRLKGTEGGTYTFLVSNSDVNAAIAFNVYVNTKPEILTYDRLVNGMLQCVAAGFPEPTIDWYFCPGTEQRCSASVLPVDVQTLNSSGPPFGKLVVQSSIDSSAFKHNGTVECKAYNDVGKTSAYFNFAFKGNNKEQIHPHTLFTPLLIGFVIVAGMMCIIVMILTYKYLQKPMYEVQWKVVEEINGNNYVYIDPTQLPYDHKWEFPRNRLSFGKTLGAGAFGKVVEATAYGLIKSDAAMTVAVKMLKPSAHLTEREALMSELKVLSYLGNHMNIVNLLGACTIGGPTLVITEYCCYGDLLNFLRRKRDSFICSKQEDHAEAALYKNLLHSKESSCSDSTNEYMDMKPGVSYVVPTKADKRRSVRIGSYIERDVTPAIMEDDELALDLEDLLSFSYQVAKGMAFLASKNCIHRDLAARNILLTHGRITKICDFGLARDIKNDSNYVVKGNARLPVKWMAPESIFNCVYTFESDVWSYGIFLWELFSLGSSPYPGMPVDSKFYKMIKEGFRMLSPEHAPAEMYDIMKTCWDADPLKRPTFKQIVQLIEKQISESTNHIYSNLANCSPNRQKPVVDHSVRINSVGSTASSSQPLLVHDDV
The subject of another data set is angiogenesis. Conditions: free-form product; WO02/32872 Example 368; cited from earlier work.

SMILES strings stand for the structures.

The values below come from patent US7550483B2, “Amorphous salt of 4-(3-chloro-4-(cyclopropylaminocarbonyl)aminophenoxy)-7-methoxy-6-quinolinecarboxamide and process for preparing the same” (Eisai R&D Management Co., Ltd., priority 2005, dated 2009).

Turning to `CCS(=O)(=O)O.COc1cc2nccc(Oc3ccc(NC(=O)NC4CC4)c(Cl)c3)c2cc1C(N)=O` [esylate amorphous, An amorphous form of the ethanesulfonate of 4-(3-chloro-4-(cyclopropylaminocarbonyl)aminophenoxy)-7-methoxy-6-quinolinecarboxamide], in data set [1], the dissolution rate is given as 25.1 μg/min/cm^2. Regarding `COc1cc2nccc(Oc3ccc(NC(=O)NC4CC4)c(Cl)c3)c2cc1C(N)=O` [free form, 4-(3-chloro-4-(cyclopropylaminocarbonyl)aminophenoxy)-7-methoxy-6-quinolinecarboxamide], at c-Kit kinase, the “inhibitory action for c-Kit kinase” value is “strong inhibitory action”. Further, the dissolution rate in data set [1] is 1.1 μg/min/cm^2. For the same compound, in the data set with angiogenesis, the angiogenesis inhibition entry was “excellent angiogenesis inhibition”. `COc1cc2nccc(Oc3ccc(NC(=O)NC4CC4)c(Cl)c3)c2cc1C(N)=O.CS(=O)(=O)O` [mesylate amorphous, An amorphous form of the methanesulfonate of 4-(3-chloro-4-(cyclopropylaminocarbonyl)aminophenoxy)-7-methoxy-6-quinolinecarboxamide] showed a dissolution rate in data set [1] of 22.7 μg/min/cm^2.
